Measured values from patent US20090163409A1, “Trappin-2 (elafin) inhibits HIV” (priority 2005, published 2009).
“Also recorded” adds a separate entry of the source. Where no end group is shown, it is not given here.

B1: SLP-I: protease inhibitor and member of the antileukoprotease superfamily, first isolated from human saliva (protein, UniProt P03973 26-132, looked up)
Antileukoproteinase: SGKSFKAGVCPPKKSAQCLRYKKPECQSDWQCPGKKRCCPDTCGIKCLDPVDTPNPTRRKPGKCPVTYGQCLMLNPPNFCEMDGQCKRDLKCCMGMCGKSCVSPVKA

Key:
[1] = test system: HIV HxBc2; experiment: HIV HxBc2 viral replication in MT4 cells (RT activity in supernatants, p24 western blot); format: cell-based
Procedure: FIG. 4. Trappin-2 inhibits HIV viral replication in an in vitro system. A) We tested HIV HxBc2 in an established viral replication model system and measured the effect of pretreatment of recombinant human trappin-2 (6.0 kDa form) on cells in viral infection 15,19. Briefly, 1 or 5 ug/mL of trappin-2 was incubated with MT4 cells for 1 hour. Then equivalent amounts of virus (0.02 cpm/cell) were added to the cells in the presence of trappin-2 for 2 hours. Infected cells were washed and cultured in the absence of trappin-2. As a control, 10 uM of AZT was used. Viral production in supernatants was evaluated by RT activity after 6 days of culture. […] B) The experiment was repeated with an additional assay of trappin-2 preincubated with cells and subsequently supplemented into the culture media (lane 6). Supernatants were harvested at Day 6 of infection and assayed for both RT activity and western blot analysis for HIV p24. Error bars are mean±SEM.
(§1) Finally, the ability of trappin-2 (6.0 kDa form) to inhibit HIV infection in an established HIV infection model was examined. A highly infectable T cell line (MT4) was used to assay the effect of trappin-2 inhibition on HIV HxBc2 replication 13,14,15. HIV inhibition experiments were performed by preincubating trappin-2 with either the virus, or target cells. […] In our in vitro system a 5 fold increase in trappin-2 (FIG. 4b) had significant effects on HIV replication. Trappin-2 has previously been reported to have immunomodulatory effects and thus its influence on immune regulation is of interest. To determine if the HIV inhibitory effects of trappin-2 are the result of induction of anti-viral cytokines such as IFN-γ, cytokine responses of MT4 cells after treatment with trappin-2 were measured.

[2] = test system: MT4 cells; experiment: Cytokine responses of MT4 cells after treatment with trappin-2; format: cell-based
Procedure: as §1

[3] = test system: T cell tropic (X4) HIV; conditions: T cell tropic (X4) viruses; cited from earlier work
[4] = test system: macrophage tropic (R5) HIV; conditions: macrophage tropic (R5) viruses; cited from earlier work

| Molecule | HIV viral replication (RT activity in supernatants) ([1]; MT4 cells pretreated 1 hour with 1 or 5 ug/mL trappin-2 (physiological concentrations), virus 2 hours, washed, cultured without trappin-2, day 6) | inhibition of HIV replication ([1]; simultaneous addition of trappin-2 and virus to target cells, compared with 1-hour pre-exposure) | HIV viral replication (RT activity, p24 western blot) ([1]; trappin-2 preincubated 1 hour with cells and added back into the culture media, day 6) | induction of cytokines (anti-viral cytokines such as IFN-γ) [2] | prevention of infection of T cells [3] | inhibition of HIV infection of macrophage cells [4] |
| --- | --- | --- | --- | --- | --- | --- |
| trappin-2: recombinant human trappin-2 (6.0 kDa form), serine protease inhibiter of the Trappin family, also known as elafin/SKALP (AQEPVKGPVSTKPGSCPIILIRCAMLNPPNRCLKDTDCPGIKKCCEGSCGMACFVPQ; not fully specified (bridges); also: four disulfide bridges, pairing not given here; UniProt P19957 61-117, looked up) | greatly reduced HIV viral replication in a dose dependent manner; also recorded: significantly reduced virus replication | significantly less inhibition | even more dramatic decrease in viral replication | No induction of cytokines was detected |  |  |
| B1 |  |  |  |  | does not prevent infection of T cells | inhibit HIV infection of macrophage cells |
